Key:
[1] = Antiviral activity was tested in cells acutely infected with HIV-1 RT (reverse transcriptase)
[2] = Antiviral activity was tested in cells acutely infected with HIV-1 Reverse transcriptase

SMILES | IC50 [1] [µM] | IC50 [2] [µM]
C[C@H]1OC(n2cc3c4c(ncnc42)N(C)N=C3N)[C@H](O)[C@@H]1O (stereo partly specified) | > 100 | 
CN1N=C(N)c2cn([C@@H]3O[C@H](CO)C[C@H]3O)c3ncnc1c23 | > 100 | 
CN1N=C(N)c2cn(C3C=C[C@@H](CO)O3)c3ncnc1c23 (stereo partly specified) [[5-(3-Amino-5-methyl-5H-1,4,5,6,8-pentaaza-acenaphthylen-1-yl)-2,5-dihydro-furan-2-yl]-methanol] | 100 | 

Results, then the compound that gave them:

IC50 [1] [µM] | IC50 [2] [µM] | SMILES
21 |  | CN1N=C(N)c2cn([C@H]3CC[C@@H](CO)O3)c3ncnc1c23
> 100 |  | CN1N=C(N)c2cn(C3C[C@@H](O)[C@@H](CO)O3)c3ncnc1c23 (stereo partly specified) [5-(3-Amino-5-methyl-5H-1,4,5,6,8-pentaaza-acenaphthylen-1-yl)-2-hydroxymethyl-tetrahydro-furan-3-ol]
 | > 100 | CN1N=C(N)c2cn(C3O[C@H](CO)[C@H]4O[C@H]34)c3ncnc1c23 (stereo partly specified) [[4-(3-Amino-5-methyl-5H-1,4,5,6,8-pentaaza-acenaphthylen-1-yl)-3,6-dioxa-bicyclo[3.1.0]hex-2-yl]-methanol(2',3'-epoxyTCN)]
